# Data reported in patent US5760063A, “Arylhydrazone derivatives useful as antibacterial agents” (Scriptgen Pharmaceuticals, Inc., priority 1996, dated 1998).
# Key:
# S. aureus = test: MIC assay, S. aureus; type: cell-based; conditions: Staphylococcus aureus, 18 h, read-out: S. Aur. MIC
# Experimental: (§1) Compounds were prepared to a concentration of 10 mM in 100% DMSO. These were then diluted to 200 μM with 50 mM tris. A 2% DMSO solution was prepared in 50 mM tris as well as a 20 μM solution of rifampicin in 2% DMSO with 50 mM tris. With each compound and control, one to one dilutions were made in a serial dilution fashion across microtiter plates with 50 mM tris. The highest concentration was 200 μM for each compound and 20 μM for rifampicin. The lowest concentrations were 1.562 μM and 0.156 μM for the compounds and rifampicin respectively.
# (§2) S. aureus, E. coli, Psuedomonas aeruginosa, Enterobacter cloacae, and Enterococcus faecium cells had been grown up in a shake culture overnight at 37° C. in LB medium. These were diluted 500 fold and added to the compounds at an equal volume. The highest compound concentration was now 100 μM, and 10 μM for rifampicin. Baseline O.D. readings were taken at 595 nm utilizing a Bio-Rad 3550-UV plate reader. A second reading was taken after 18 hours.
# Enterobacter cloacae = test: MIC assay, Enterobacter cloacae (CL); type: cell-based; conditions: OD 595 nm after 18 hours
# Experimental: as §1, §2
# Enterococcus faecium = test: MIC assay, Enterococcus faecium (FAE); type: cell-based; conditions: OD 595 nm after 18 hours
# Experimental: as §1, §2
# Psuedomonas aeruginosa = test: MIC assay, Psuedomonas aeruginosa (PS); type: cell-based; conditions: OD 595 nm after 18 hours
# Experimental: as §1, §2
# E. coli RNAP = E. coli RNAP (Escherichia coli, UniProt P0A8T7+P0A8V2); test: High throughput in vitro transcription (RNAP) assay; type: biochemical; conditions: 60 minutes incubation
# Experimental: (I) High Throughput in vitro Transcription (RNAP) Assay
# The reagents are added to the DMSO/compound with a Tomtec Quadra. The Quadra acts as 96-tip pipetman, combined with a movable base. The reagents and compounds are stored and used in 96-well polypropylene u-bottom microtiter plates.
# The Quadra is run in backfill mode (filled with water). A total of […] of reagents must be added. This is divided into a 20 ml RNAP/Txn Buffer mix and a 25 ml DNA/NTP/water mix. The RNAP mix is added first to allow the drug a chance to interact with RNAP before RNAP interacts with DNA (this interaction lasts less than 5 seconds). The mixing of the reagents is done with a multivortexer after all reagents have been added (setting 5.5 for 90 seconds).
# After incubation for 60 minutes, the reaction is stopped with 150 ml 10% TCA, which also precipitates the RNA. The RNA is allowed to sit a room temperature for approximately 15-45 minutes (until all plates have been stopped and the cell harvester has been set up).
# The TCA precipitated RNA is transferred to double-thick glass filtermats using a Tomtec cell harvester. The wells of the microtiter plate are washed with 5% TCA and sucked through the same filtermat. Two additional washes with 5 % TCA solution are sufficient to reduce background counts.
# The filters are then dried at 60° for 60 minutes. It is important to remove all of the liquid, or this may quench the scintillation fluid when it is added.
# The dry filters are sealed into plastic bags with a heat-sealer. A hole is cut in one corner and 12 ml of "β-plate scintillant" is added to each bag.
# When choosing a scintillation counting program on the Wallac Microb 1450, it is important to choose one which counts using the appropriate window for P^32. Each well is counted for 3 seconds. The data obtained is used to calculate an lC50 value.
# Chain of E. coli RNAP (P0A8V2 whole entry): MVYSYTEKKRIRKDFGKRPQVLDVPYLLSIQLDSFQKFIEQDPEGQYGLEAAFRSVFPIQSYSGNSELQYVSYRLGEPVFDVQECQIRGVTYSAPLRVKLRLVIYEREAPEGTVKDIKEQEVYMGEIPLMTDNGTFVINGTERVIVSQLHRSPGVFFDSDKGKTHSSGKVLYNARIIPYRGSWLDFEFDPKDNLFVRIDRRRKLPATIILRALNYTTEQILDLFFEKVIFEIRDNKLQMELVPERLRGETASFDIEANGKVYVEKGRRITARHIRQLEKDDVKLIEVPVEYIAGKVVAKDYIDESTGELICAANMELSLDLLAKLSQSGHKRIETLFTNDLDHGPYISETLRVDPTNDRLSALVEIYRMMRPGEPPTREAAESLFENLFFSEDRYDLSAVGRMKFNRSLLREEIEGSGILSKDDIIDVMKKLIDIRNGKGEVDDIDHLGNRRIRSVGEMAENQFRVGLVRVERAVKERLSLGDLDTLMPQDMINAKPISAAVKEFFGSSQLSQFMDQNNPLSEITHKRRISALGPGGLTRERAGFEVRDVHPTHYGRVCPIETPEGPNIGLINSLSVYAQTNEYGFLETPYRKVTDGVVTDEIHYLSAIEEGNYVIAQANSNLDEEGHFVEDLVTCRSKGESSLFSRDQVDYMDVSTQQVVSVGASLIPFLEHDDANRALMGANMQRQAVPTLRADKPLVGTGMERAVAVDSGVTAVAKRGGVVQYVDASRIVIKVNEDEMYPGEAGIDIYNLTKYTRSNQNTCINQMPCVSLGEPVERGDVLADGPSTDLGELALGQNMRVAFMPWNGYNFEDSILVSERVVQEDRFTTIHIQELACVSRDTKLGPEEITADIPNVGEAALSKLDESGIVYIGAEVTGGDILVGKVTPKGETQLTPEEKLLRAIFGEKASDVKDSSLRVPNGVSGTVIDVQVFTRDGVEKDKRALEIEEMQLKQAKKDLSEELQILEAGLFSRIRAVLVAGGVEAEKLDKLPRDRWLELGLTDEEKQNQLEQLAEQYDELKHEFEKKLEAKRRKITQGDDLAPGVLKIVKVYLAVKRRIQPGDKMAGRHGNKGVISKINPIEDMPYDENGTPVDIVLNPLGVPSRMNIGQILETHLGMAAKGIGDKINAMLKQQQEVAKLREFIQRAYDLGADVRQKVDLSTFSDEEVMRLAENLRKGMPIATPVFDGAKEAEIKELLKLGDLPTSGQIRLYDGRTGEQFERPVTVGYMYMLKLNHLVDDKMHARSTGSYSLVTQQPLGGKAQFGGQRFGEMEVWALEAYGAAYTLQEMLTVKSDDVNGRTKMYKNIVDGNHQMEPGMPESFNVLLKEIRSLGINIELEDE
# Chain of E. coli RNAP (P0A8T7 whole entry): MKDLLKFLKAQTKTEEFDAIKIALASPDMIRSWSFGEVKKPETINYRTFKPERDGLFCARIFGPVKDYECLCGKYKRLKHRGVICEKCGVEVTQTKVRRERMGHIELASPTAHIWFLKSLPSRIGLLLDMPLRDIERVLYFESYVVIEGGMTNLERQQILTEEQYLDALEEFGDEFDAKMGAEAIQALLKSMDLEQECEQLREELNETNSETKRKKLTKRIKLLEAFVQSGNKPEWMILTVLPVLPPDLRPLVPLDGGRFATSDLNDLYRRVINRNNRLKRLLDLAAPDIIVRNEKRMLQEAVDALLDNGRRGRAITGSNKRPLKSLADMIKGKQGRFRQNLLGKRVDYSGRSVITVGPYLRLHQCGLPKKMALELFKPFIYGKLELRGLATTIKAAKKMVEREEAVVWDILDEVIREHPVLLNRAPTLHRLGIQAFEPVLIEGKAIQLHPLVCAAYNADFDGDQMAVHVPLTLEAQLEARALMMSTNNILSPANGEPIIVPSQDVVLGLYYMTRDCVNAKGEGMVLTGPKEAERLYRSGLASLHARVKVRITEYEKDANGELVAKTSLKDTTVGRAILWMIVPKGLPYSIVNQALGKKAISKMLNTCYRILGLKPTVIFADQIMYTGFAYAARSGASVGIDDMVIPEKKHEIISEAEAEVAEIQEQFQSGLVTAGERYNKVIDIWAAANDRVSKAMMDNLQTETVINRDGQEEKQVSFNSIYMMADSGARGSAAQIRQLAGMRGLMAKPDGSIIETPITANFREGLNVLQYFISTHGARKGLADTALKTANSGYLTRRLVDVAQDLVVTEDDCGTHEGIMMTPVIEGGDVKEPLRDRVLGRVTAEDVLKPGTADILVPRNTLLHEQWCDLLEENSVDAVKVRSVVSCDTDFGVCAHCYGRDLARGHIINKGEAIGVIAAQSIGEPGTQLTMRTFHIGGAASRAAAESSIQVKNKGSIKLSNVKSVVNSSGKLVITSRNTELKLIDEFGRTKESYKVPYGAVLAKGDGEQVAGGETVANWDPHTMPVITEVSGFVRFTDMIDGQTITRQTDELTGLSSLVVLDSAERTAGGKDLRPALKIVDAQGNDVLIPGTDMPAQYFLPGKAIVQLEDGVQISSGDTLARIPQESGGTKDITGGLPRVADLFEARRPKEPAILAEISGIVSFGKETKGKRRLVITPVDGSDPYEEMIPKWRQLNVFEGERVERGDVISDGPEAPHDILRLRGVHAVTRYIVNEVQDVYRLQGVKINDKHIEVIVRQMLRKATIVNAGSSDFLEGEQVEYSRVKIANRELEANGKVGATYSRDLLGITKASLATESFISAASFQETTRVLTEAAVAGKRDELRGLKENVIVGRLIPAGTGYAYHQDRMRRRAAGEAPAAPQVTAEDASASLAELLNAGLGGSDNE
# Chain of E. coli RNAP (P0A7Z4 whole entry partner): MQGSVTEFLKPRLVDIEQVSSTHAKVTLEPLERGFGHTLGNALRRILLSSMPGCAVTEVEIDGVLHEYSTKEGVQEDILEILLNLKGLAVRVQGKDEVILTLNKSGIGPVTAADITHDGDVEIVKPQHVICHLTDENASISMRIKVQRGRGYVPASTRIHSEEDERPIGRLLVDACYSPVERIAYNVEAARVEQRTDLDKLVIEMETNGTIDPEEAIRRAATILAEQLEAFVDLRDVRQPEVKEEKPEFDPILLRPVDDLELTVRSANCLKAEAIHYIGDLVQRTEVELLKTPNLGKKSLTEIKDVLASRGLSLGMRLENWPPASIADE
Compound,MIC (S. aureus) [µM],MIC (Enterobacter cloacae) [µM],MIC (Enterococcus faecium) [µM],MIC (Psuedomonas aeruginosa) [µM],IC50 (E. coli RNAP) [µM]
CC(=O)N(N=C(C#N)C(=O)c1ccc(Cl)cc1)c1ccc([N+](=O)[O-])cc1 [Example 3],> 10,0.5 to 10,> 10,> 10,0.5 to 10
C[S+]([O-])c1ccc(NN=C(C#N)C(=O)c2ccc(Cl)cc2)cc1 (stereo not shown) [Example 5],> 10,0.5 to 10,> 10,> 10,0.5 to 10
CSc1ccc(NN=C(C#N)C(=O)c2ccc(Cl)cc2)cc1 [Example 4],> 10,0.5 to 10,> 10,> 10,0.5 to 10
N#CC(=NNc1ccc(Cl)cc1)C(=O)c1ccc(Cl)cc1 [Example 19],> 10,0.5 to 10,> 10,> 10,0.5 to 10
CS(=O)(=O)c1ccc(NN=C(C#N)C(=O)c2ccc(-c3ccccc3)cc2)cc1 [Example 11],,> 10,> 10,> 10,> 10
CC(=O)N(N=C(C#N)C(=O)c1ccc(Cl)cc1)c1ccc(Cl)cc1 [Example 14],> 10,0.5 to 10,> 10,> 10,> 10
N#CC(=NNc1ccc([N+](=O)[O-])cc1)C(=O)c1ccc(Cl)nc1 [Example 8],,,,,0.5 to 10
N#CC(=NNc1ccc([N+](=O)[O-])cc1)C(=O)c1cccc(Cl)c1 [Example 22],,> 10,> 10,> 10,> 10
CS(=O)(=O)c1ccc(NN=C(C#N)C(=O)c2ccc(Cl)cc2)cc1 [Example 1],> 10,< 0.5,> 10,> 10,< 0.5
N#CC(=NNc1ccc(Cl)cc1)C(=O)c1ccc(-c2ccccc2)cc1 [Example 13],> 10,> 10,> 10,> 10,> 10
"N#CC(=NNc1ccc([N+](=O)[O-])cc1)C(=O)c1ccc(Cl)cc1 [Example 17, 2-(4-nitrophenyl)hydrazono-3-oxo-3-(4-chlorophenyl)propionitrile]",0.5 to 10,< 0.5,< 0.5,> 10,< 0.5
N#CC(=NNc1ccc(F)cc1)C(=O)c1ccc(OC(F)(F)F)cc1 [Example 21],0.5 to 10,0.5 to 10,> 10,> 10,0.5 to 10
N#CC(=NNc1ccc(OC(F)(F)F)cc1)C(=O)c1ccc(Cl)cc1 [Example 18],0.5 to 10,0.5 to 10,0.5 to 10,> 10,0.5 to 10
Cc1c(C(=O)C(C#N)=NNc2ccc(C(C)C)cc2)sc2ccc(Cl)cc12 [Example 16],> 10,0.5 to 10,> 10,> 10,0.5 to 10
Cc1c(C(=O)C(C#N)=NNc2ccc([N+](=O)[O-])cc2)sc2ccc(Cl)cc12 [Example 15],> 10,< 0.5,0.5 to 10,> 10,< 0.5
CS(=O)(=O)Nc1ccc(NN=C(C#N)C(=O)c2ccc(Cl)cc2)cc1 [Example 7],,0.5 to 10,> 10,> 10,0.5 to 10
N#CC(=NNc1ccc(C(=O)O)cc1)C(=O)c1ccc(Cl)cc1 [Example 9],,> 10,> 10,> 10,> 10
N#CC(=NNc1ccc([N+](=O)[O-])cc1)C(=O)c1ccccc1 [Example 23],0.5 to 10,0.5 to 10,> 10,> 10,> 10
CS(=O)(=O)C(=NNc1ccc([N+](=O)[O-])cc1)C(=O)c1ccc(Cl)cc1 [Example 2],,0.5 to 10,> 10,> 10,0.5 to 10
CC(=O)Nc1ccc(NN=C(C#N)C(=O)c2ccc(Cl)cc2)cc1 [Example 10],,> 10,> 10,> 10,> 10
N#CC(=NNc1cc(C(F)(F)F)cc(C(F)(F)F)c1)C(=O)c1ccccc1 [Example 20],0.5 to 10,0.5 to 10,> 10,> 10,0.5 to 10
N#CC(=NNc1ccc([N+](=O)[O-])cc1)C(=O)c1ccc(-c2ccccc2)cc1 [Example 6],> 10,0.5 to 10,1,> 10,0.5 to 10
